Measured values published in patent publication US8889662B2, “Method to alter sex ratios in avian offspring” (University of Georgia Research Foundation, Inc., priority 2009, dated 2014).

Assays:
[1] = tested on: zebra finch (Taeniopygia guttata); assay: Example 2: disruption of ovulation, oviposition and embryo development after injection, zebra finches; format: in vivo; conditions: 20 ug injection
Description: Zebra finch (Taeniopygia guttata) pairs obtained from a breeding colony maintained at The University of Georgia were housed in individual cages and provided feed and water ad libidumn. Birds were kept under a 14 hour (h) light (L):10 h dark (D) light schedule. Egg-laying was monitored daily and eggs marked to record sequence order. Females were injected intraperitoneally after the first or second egg of the clutch was laid with one of three treatments: 20 μg of CORT dissolved in 50 μl peanut oil and 10% ethanol (CORT), 20 μg of progesterone dissolved in […] and 10% ethanol (P), or 50 μl of control peanut oil (C). A fourth set of females received no injection treatment (UN). […] The follicle ovulating 5 hours after injection, was laid approximately 36 hours after injection (FIG. 3). Ovulating follicles exposed to treatments were laid as the 3rd or 4th egg in the sequence (3rd egg if treatment was administered on the day the 1st egg was laid and the 4th egg in the sequence if treatment was administered on the day the 2nd egg was laid). Eggs were allowed to incubate in the nest for 8-12 days prior to collection to allow sufficient embryonic development for DNA extraction and molecular sexing analyses. Occasionally these treatments disrupted the oviposition immediately following the injection. Females that delayed oviposition after treatment were excluded from analysis because it was not possible to determine whether the egg collected the following day was from the ovulation event that occurred immediately following injection or from a delayed oviposition of the follicle ovulated the day prior to injection. Females that delayed oviposition were allowed to complete the clutch after which the treatment was repeated during the next clutch. […] Only 1/10 females treated with progesterone laid successfully. For this reason, progesterone treatments were eliminated from further analyses.

female chickens = conditions: at the time of meiotic segregation, Correa et al. 2005; cited from earlier work
[2] = tested on: zebra finches and pigeons; conditions: literature; cited from earlier work

Structure (SMILES) | eggs with delayed oviposition [1] [eggs] | eggs with no visible development [1] [eggs] | females in which ovulation and oviposition were disrupted [1] [%] | females that laid successfully ([1]; number of treated females) | sex ratio after acute progesterone treatment (female chickens) | sex ratio after testosterone treatment [2]
CC(=O)[C@H]1CC[C@H]2[C@@H]3CCC4=CC(=O)CC[C@]4(C)[C@H]3CC[C@]12C [progesterone] | 5 | 4 | 90 | 1/10 | induced a sex ratio skew towards females | 
C[C@]12CC[C@H]3[C@@H](CCC4=CC(=O)CC[C@@]43C)[C@@H]1CC[C@@H]2O [testosterone] |  |  |  |  |  | induced a skew towards males
